Read-outs that look alike come from different tables or passages of the source.
How the values were obtained:
[1] = test system: P. falciparum NF54 GFP-Pfs16 gametocytes stage I-III; conditions: ref [64], cited from earlier work
[2] = test system: Mycobacterium marinum in Acanthamoeba castellanii; assay: A. castellanii-M. marinum infection assay; format: cell-based; conditions: 10µM
Protocol: Columns FA-FC: Soldati Group (data presented first in this paper). M. marinum, D. discoideum, and Acathamoeba castellani assays. Each compound of the Malaria Box has been assayed at 10 µM in all three assays. First, the antibiotic activity was assayed directly against Mycobacterium marinum in its culture medium. Second, the toxicity and growth inhibitory effect of the compounds was assayed against the amoeba Dictyostelium discoideum in its culture medium. Finally, the “in cellulo” anti-infective activity of each compound was tested using the intracellular infection system Acanthamoeba castellanii-M. marinum. Values have been normalized using the DMSO carrier. For each assay, values have been normalized to 1.00 using the DMSO carrier, which has no detectable effect on D. discoideum nor M. marinum growth, while rifabutin was used as positive control for the antibiotic assay and the infection assay, as it abolishes M. marinum growth (normalized value under 0.10) in broth at 10 µM and intracellularly at 30 µM [150].

[3] = test system: MRC5SV2 human fibroblasts; conditions: read-out: MRC-5-Human-Fibroblasts EC50 (32000 >32µM); ref [84]; cited from earlier work
[4] = test system: P. berghei liver stage in HepG2-A16-CD81EGFP; set-up: method as in ref [58, 65] (a number printed in a supplementary file, which may have a reference list of its own: not looked up in the article's list); conditions: ref [58, 65], cited from earlier work; for P. berghei Liver stage activity summary: 50uM; for P. berghei Liver stage infection rate rep1 (luciferase) / P. berghei Liver stage infection rate rep2 (luciferase): 50µM
A. ceylanicum L3 larvae = A. ceylanicum L3 larvae J. Keiser; format: cell-based, Ancylostoma ceylanicum; conditions: 200µM
T. equi (USDA strain) = assay: T. equi fluorescence-based growth assay; format: cell-based; conditions: Theileria equi
HepG2-A16-CD81EGFP cells = conditions: 50uM; ref [58, 65]; cited from earlier work
[5] = test system: Naegleria fowleri trophozoites; assay: Naegleria fowleri CellTiter-Glo; format: cell-based; conditions: 1µM
Method in brief: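 Growth inhibition of Naegleria fowleri trophozoites in vitro, read as cellular ATP by CellTiter-Glo 2.0 luminescence in lysed cells, output in relative light units.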

PfPMT = PfPMT (Plasmodium falciparum, UniProt Q8IDQ9); assay: PfPMT gene replacement yeast growth
Brugia malayi = Brugia malayi Scynexis; format: cell-based; conditions: 10µM
Protocol: Supplement ppat.1005763.s002.xlsx, sheet "S1 Table Heat Map" | column: Brugia malayi 5d % dead at 10µM Scynexis

[6] = test system: P. falciparum W2 apicoplast; conditions: 5µM compound; ref [54]; cited from earlier work
[7] = test system: P. falciparum NF54Pfs16 gametocytes stage I-III; conditions: ref [61], cited from earlier work
[8] = test system: P. falciparum NF54 late-stage gametocytes; conditions: 5 µM; ref [55]; cited from earlier work
[9] = test system: Leishmania infantum MHOM/MA/BE/67; conditions: ref [84]; read-out: Leishmania infantum EC50 intracellular amastigotes in primary macrophages; cited from earlier work
wild type yeast cells = assay: WT yeast (PMT assay control); conditions: Saccharomyces cerevisiae
B. caballi (USDA) = assay: B. caballi fluorescence-based growth assay; format: cell-based; conditions: Babesia caballi
[10] = read-out: % Inhibition in PfPMT gene replacement yeast, no added choline
[11] = read-out: % Inhibition in PfPMT gene replacement yeast, with added choline
[12] = read-out: % Inhibition in WT yeast (PMT assay control), no added choline
[13] = read-out: % Inhibition in WT yeast (PMT assay control), with added choline

Chain of PfPMT (Q8IDQ9 whole entry): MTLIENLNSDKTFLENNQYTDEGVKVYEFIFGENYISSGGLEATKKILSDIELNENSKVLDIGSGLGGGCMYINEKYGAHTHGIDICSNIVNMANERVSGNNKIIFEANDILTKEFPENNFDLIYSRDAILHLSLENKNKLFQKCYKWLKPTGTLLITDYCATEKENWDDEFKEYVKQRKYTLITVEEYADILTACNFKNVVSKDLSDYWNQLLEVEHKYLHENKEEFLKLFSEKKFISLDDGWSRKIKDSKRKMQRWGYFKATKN

| SMILES | gametocyte early stage (I-III) GFP-MTR % inhibition ([1]; 0.5µM) [%] | gametocyte early stage (I-III) GFP-MTR % inhibition ([1]; 5µM) [%] | Mycobacterium marinum growth in Acanthamoeba castellanii DMSO=1 Infection Assay [2] | EC50 [3] [µM] | P. berghei Liver stage infection rate rep1 (luciferase) [4] [%] | P. berghei Liver stage infection rate rep2 (luciferase) [4] [%] | Anyclostoma ceylanicum L3 larvae effect (%) (A. ceylanicum L3 larvae) | EC50 (T. equi (USDA strain)) [µM] | HepG2 toxicity rep 1 (HepG2-A16-CD81EGFP cells) [%] | Naegleria fowleri % growth [5] [%] | inhibition at 100 µM (PfPMT; [10]) [%] | inhibition at 100 µM (PfPMT; [11]) [%] | Brugia malayi 5d % dead (Brugia malayi) [%] | gametocyte early stage (I-III) luciferase % inhibition ([7]; 0.5µM) [%] | gametocyte early stage (I-III) luciferase % inhibition ([7]; 2.5µM) [%] | gametocyte early stage (I-III) luciferase % inhibition ([7]; 5µM) [%] | gametocyte NF54 late stage (IV-V) % inhibition Cassera [8] [%] | inhibition at 100 µM (wild type yeast cells; [12]) [%] | inhibition at 100 µM (wild type yeast cells; [13]) [%] | EC50 (B. caballi (USDA)) [µM] | also measured |
| --- | --- | --- | --- | --- | --- | --- | --- | --- | --- | --- | --- | --- | --- | --- | --- | --- | --- | --- | --- | --- | --- |
| CCOC(=O)c1cnc2ccc(OC)cc2c1NCc1ccccc1 [MMV665813] | 26 | 17 | 1.26 | > 32 | -3.22 | -4 | 0 | 14.1 | -1.52 | 91 | 0 | 0 | 12 | -13 | -10 | -8 | 36 | 0 | 0 | 5.9 | P. berghei Liver stage activity summary [4]: tox (tox (toxic) if >50% HepG2); P. falciparum (W2) asexual growth: ratio w & wout 200µM IPP [6]: 0.72; EC50 [9]: 10.1 µM |
| CCN1CCN(c2cc(C)c3cc(NC(=O)c4ccc(OC)c(OC)c4)ccc3n2)CC1 [MMV019074] | 11 | 14 | 0.93 | 5.46 | -3.74 | -4 | 0 | 0.33 | 1.64 | 88 | 0 | 0 | -2 | -13 | -14 | -6.56 | 27 | 0 | 0 | 5.93 | P. berghei Liver stage activity summary [4]: tox (tox (toxic) if >50% HepG2); HepG2 toxicity rep 2 (HepG2-A16-CD81EGFP cells): -0.0766%; EC50 [9]: 6.35 µM |
| CCN(CC)c1cc(C)c2cc(NC(=O)c3cccc(OC)c3)ccc2n1 [MMV000498] | 15 | 16 | 0.94 | 15.3 | -3.74 | -5.7 | 0 | 0.46 | 0.453 | 80 | 16 | 0 | 13 | -15 | -18 | -3.81 | 47 | 0 | 0 | 9.33 | P. berghei Liver stage activity summary [4]: tox (tox (toxic) if >50% HepG2); HepG2 toxicity rep 2 (HepG2-A16-CD81EGFP cells): -1.24%; P. falciparum (W2) asexual growth: ratio w & wout 200µM IPP [6]: 1.10; EC50 [9]: 16.2 µM |
| COc1ccc(C(=O)Nc2ccc3nc(N4CCCCC4)cc(C)c3c2)cc1OC [MMV019758] | -8 | 8 | 1.23 | 16.4 | -4 | -4 | 0 | 6.99 | -1 | 87 | 0 | 0 | 9 | -7 | -13 | -5.6 | 56 | 0 | 0 | 0.51 | P. berghei Liver stage activity summary [4]: tox (tox (toxic) if >50% HepG2); HepG2 toxicity rep 2 (HepG2-A16-CD81EGFP cells): -1.21%; P. falciparum (W2) asexual growth: ratio w & wout 200µM IPP [6]: 0.79; EC50 [9]: 16.2 µM |
| COc1cc2cc(C(=O)Nc3ccccc3)c(N)nc2cc1OC [MMV006767] | 17 | 99 | 1.18 | > 32 | 27 | 61 | 0 | 3.04 | 82 | 95 | 0 | 0 | 18 | -7 | 7.41 | 19 | 7 | 0 | 0 | 6.22 | HepG2 toxicity rep 2 (HepG2-A16-CD81EGFP cells): 90% |

Reference: publication PMC4965013, “Open Source Drug Discovery with the Malaria Box Compound Collection for Neglected Diseases and Beyond” (PLoS Pathogens, 2016)
